Experiments:
[1] = target: MshEN lacking the entire C-terminal subdomain; set-up: method as in PMID 27578558; settings: entire C-terminal subdomain deleted; read-out: KD (ligand affinity); cited from earlier work
PilF159-302 K167R+E170D = target: T1, PilF159-302 K167R+E170D (Thermus thermophilus, UniProt Q5SLC9, E170D/K167R); assay: ITC binding to PilF159-302 K167R-E170D; settings: 20 °C
T1 sequence (Q5SLC9 159-302 K167R/E170D): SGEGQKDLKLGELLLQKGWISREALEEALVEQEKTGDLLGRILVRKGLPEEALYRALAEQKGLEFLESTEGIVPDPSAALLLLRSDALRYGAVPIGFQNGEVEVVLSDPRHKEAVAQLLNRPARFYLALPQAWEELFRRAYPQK
Experimental: (§1) To assess the ligand-binding capabilities of the various PilF constructs, triplicates of ITC measurements were recorded for each construct. The measurements were carried out using a MicroCal ITC200 (Malvern Panalytical). All ITC experiments were conducted at 20 °C with 50 mM Tris-HCl pH 7.5, 200 mM sodium chloride, 1 mM β-mercaptoethanol as the sample buffer. All protein samples were extensively dialyzed against the sample buffer and the buffer used for dialysis was used to dilute protein and c-di-GMP samples in preparation for the ITC measurements. Each measurement was conducted using the following protocol. In total, 39.8 μl c-di-GMP were titrated to 270 μl protein in 20 separate injections in 180 s intervals with a stirring speed of 750 rpm. After an initial delay of 120 s, the first injection of 0.2 μl c-di-GMP with a duration of 0.4 s was followed by 19 injections of 2 μl with a duration of 4 s. During the measurement, the feedback mode was set to high and the reference power to 11 μcal s^−1. To optimize precision of the measurements, protein and c-di-GMP concentrations were adjusted to the binding capabilities of the respective constructs and ranged from 5 to 200 μM for protein and 50 to 2000 μM for c-di-GMP. All thermograms were processed using Origin 7.0 (OriginLab) using a one-site– or two-site–binding model dependent on the number of expected binding events.

PilF159-302 D266A = target: T2, PilF159-302 D266A (Thermus thermophilus, UniProt Q5SLC9, D266A); assay: ITC binding to PilF159-302 D266A; settings: 20 °C
T2 sequence (Q5SLC9 159-302 D266A): T1 sequence (Q5SLC9 159-302 K167R/E170D)
Experimental: as §1

PilF159-302 K167L = target: T3, PilF159-302 K167L (Thermus thermophilus, UniProt Q5SLC9, K167L); assay: ITC binding to PilF159-302 K167L; settings: 20 °C
T3 sequence (Q5SLC9 159-302 K167L): T1 sequence (Q5SLC9 159-302 K167R/E170D)
Experimental: as §1

[2] = target: T4, PilF1-302 (GSPII-A and GSPII-B) (Thermus thermophilus, UniProt Q5SLC9); assay: ITC binding to PilF1-302; settings: 20 °C
T4 sequence (Q5SLC9 1-302): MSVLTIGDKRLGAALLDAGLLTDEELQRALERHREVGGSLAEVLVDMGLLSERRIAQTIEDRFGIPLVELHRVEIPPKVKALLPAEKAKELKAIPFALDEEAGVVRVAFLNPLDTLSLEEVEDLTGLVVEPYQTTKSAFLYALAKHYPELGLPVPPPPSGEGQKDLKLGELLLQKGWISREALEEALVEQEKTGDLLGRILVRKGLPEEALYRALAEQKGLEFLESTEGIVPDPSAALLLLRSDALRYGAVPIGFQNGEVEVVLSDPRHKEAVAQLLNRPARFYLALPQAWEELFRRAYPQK
Experimental: as §1

[3] = target: T5, PilF159-221 (lacking the C-terminal subdomain) (Thermus thermophilus, UniProt Q5SLC9); assay: ITC binding to PilF159-221
T5 sequence (Q5SLC9 159-221): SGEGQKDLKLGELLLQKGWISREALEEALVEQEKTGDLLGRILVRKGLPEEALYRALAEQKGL
Experimental: as §1

Nc1nc2c(ncn2[C@@H]2O[C@@H]3COP(=O)(O)O[C@H]4[C@@H](O)[C@H](n5cnc6c(=O)[nH]c(N)nc65)O[C@@H]4COP(=O)(O)O[C@H]3[C@H]2O)c(=O)[nH]1 [c-di-GMP, cyclic dimeric guanosine monophosphate]
Kd [1]: 0.35 µM | N (PilF159-302 K167R+E170D): 0.76 ± 0.03 | ΔH (PilF159-302 K167R+E170D): -53.735 ± 1.52 kJ/mol | ΔS (PilF159-302 K167R+E170D): -11.6 ± 1.3 cal/mol/deg | Kd (PilF159-302 K167R+E170D; pH 7.5): 0.092 ± 0.008 µM | N (PilF159-302 D266A): 0.95 ± 0.05 | ΔH (PilF159-302 D266A): -41.82 ± 0.674 kJ/mol | ΔS (PilF159-302 D266A): 0.6 ± 0.4 cal/mol/deg | Kd (PilF159-302 D266A; pH 7.5): 0.027 ± 0.002 µM | N (PilF159-302 K167L): 0.76 ± 0.10 | ΔH (PilF159-302 K167L): -42.848 ± 2.07 kJ/mol | ΔS (PilF159-302 K167L): 5.4 ± 1.4 cal/mol/deg | Kd (PilF159-302 K167L; pH 7.5): 0.002 ± 0.0003 µM | N [2]: 0.94 ± 0.13 | ΔH [2]: -59.676 ± 8.372 kJ/mol | ΔS [2]: -11.4 ± 6.4 cal/mol/deg | Kd ([2]; pH 7.5): 0.007 ± 0.002 µM | N ([3]; ITC, 20 °C): 1.17 ± 0.02 | ΔH ([3]; ITC, 20 °C): -47.919 ± 0.791 kJ/mol | ΔS ([3]; ITC, 20 °C): -5.8 ± 0.6 cal/mol/deg | Kd ([3]; ITC, 20 °C, pH 7.5): 0.054 ± 0.003 µM | fold higher KD than PilF159-302 ([3]; PilF159-302 6 nM): 9 fold

Reference: paper PMC11731258, “The structural basis for high-affinity c-di-GMP binding to the GSPII-B domain of the traffic ATPase PilF from Thermus thermophilus” (The Journal of Biological Chemistry, 2024)
